Legend:
VZV = type: cell-based, varicella zoster virus; settings: HEL cell cultures
HCMV = type: cell-based, human cytomegalovirus; settings: HEL cell cultures

Row | SMILES | anti-VZV activity (in words) (VZV) | anti-HCMV activity (in words) (HCMV)
1 | O=C(Cn1c(=O)ccn(CCCCCOc2ccccc2)c1=O)Nc1ccc(Oc2ccccc2)cc1 [Compound 7a, 2-[2,6-Dioxo-3-(5-phenoxypentyl)-3,6-dihydropyrimidin-1(2H)-yl]-N-(4-phenoxyphenyl)acetamide] | inactive | –
2 | O=C(Cn1c(=O)ccn(COCCOCc2ccc(Br)cc2)c1=O)Nc1ccc(Oc2ccccc2)cc1 [Compound 20, 2-[3-[[2-(4-Bromobenzyloxy)ethoxy]methyl]-2,6-dioxo-3,6-dihydropyrimidin-1(2H)-yl]-N-(4-phenoxyphenyl)acetamide] | loss of activity | completely inactive
3 | O=C(Cn1c(=O)ccn(Cc2ccc(Oc3ccc(Br)cc3)cc2)c1=O)Nc1ccc(Oc2ccccc2)cc1 [Compound 23, 2-[3-[4-(4-Bromophenoxy)benzyl]-2,6-dioxo-3,6-dihydropyrimidin-1(2H)-yl]-N-(4-phenoxyphenyl)acetamide] | loss of activity | –
4 | O=C(Cn1c(=O)ccn(CCCCOCc2ccc(Br)cc2)c1=O)Nc1ccc(Oc2ccccc2)cc1 [Compound 17, 2-[3-[4-(4-Bromobenzyloxy)butyl]-2,6-dioxo-3,6-dihydropyrimidin-1(2H)-yl]-N-(4-phenoxyphenyl)acetamide] | loss of activity | –
5 | O=C(Cn1c(=O)ccn(CCCCCCc2ccccc2)c1=O)Nc1ccc(Oc2ccccc2)cc1 [Compound 13, 2-[2,6-Dioxo-3-(6-phenylhexyl)-3,6-dihydropyrimidin-1(2H)-yl]-N-(4-phenoxyphenyl)acetamide] | loss of activity | loss of activity
6 | O=C(Cn1c(=O)c(I)cn(CCCCCOc2ccc(Br)cc2)c1=O)Nc1ccc(Oc2ccccc2)cc1 [Compound 7j, 2-[3-[5-(4-Bromophenoxy)pentyl]-5-iodo-2,6-dioxo-3,6-dihydropyrimidin-1(2H)-yl]-N-(4-phenoxyphenyl)acetamide] | completely inactive | completely inactive
